# Assay results as given in the supplement of paper PMC5908809.
# Assays:
# SNK-6 (IL-2 2.5 ng/mL) [1] = assay: relative IC50 (inflection point of fitted viability curve, relative to fitted max inhibition); higher = less sensitive; conditions: 72 h
# Procedure: (§1)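 Drug sensitivity and resistance testing: 5 concentrations over a 10,000-fold range, 72 h at 37 °C, viability by CellTiter-Glo normalised to DMSO and benzethonium chloride controls. IC50 is the inflection point of a logistic fit (min fixed at 0, max fitted), so it is relative to the fitted maximal inhibition. Kept only where fitted max inhibition is at least 50%.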
# KHYG-1 (IL-2 2.5 ng/mL) [2] = assay: as above; conditions: 72 h
# Procedure: as §1
# NKL (IL-2 2.5 ng/mL) [3] = assay: as above; conditions: 72 h
# Procedure: as §1
# NK-92 (IL-2 2.5 ng/mL) [4] = assay: as above; conditions: 72 h
# Procedure: as §1
# DERL-7 (IL-2 2.5 ng/mL) [5] = assay: as above; conditions: 72 h
# Procedure: as §1
# [6] = tested on: normal NK cells expanded with K562-aAPC; assay: percent inhibition of viability; higher = more inhibition; conditions: 72 h, IL-2 2.5 ng/mL
# Procedure: (§2)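 Drug sensitivity and resistance testing on K562-aAPC-expanded normal NK cells: 5 concentrations (10-fold steps over a 10,000-fold range), 72 h at 37 °C, viability by CellTiter-Glo normalised to DMSO and benzethonium chloride controls; DSS from the fitted curve.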
# DERL-7 (IL-2 2.5 ng/mL) [7] = assay: as above; conditions: 72 h
# IMC-1 (IL-2 20 ng/mL) [8] = assay: as above; conditions: 72 h
# KAI3 (IL-2 2.5 ng/mL) [9] = assay: as above; conditions: 72 h
# KHYG-1 (IL-2 2.5 ng/mL) [10] = assay: as above; conditions: 72 h
# NK-92 (IL-2 2.5 ng/mL) [11] = assay: as above; conditions: 72 h
# NK-YS (IL-2 2.5 ng/mL) [12] = assay: as above; conditions: 72 h
# NKL (IL-2 2.5 ng/mL) [13] = assay: as above; conditions: 72 h
# SNK-6 (IL-2 2.5 ng/mL) [14] = assay: as above; conditions: 72 h
# YT (IL-2 2.5 ng/mL) [15] = assay: as above; conditions: 72 h
# [16] = tested on: normal primary NK cells, pool 1 (3 donors) (IL-2 2.5 ng/mL); assay: as above; conditions: 72 h
# [17] = tested on: normal primary NK cells, pool 1 (3 donors), resting (IL-2 0 ng/mL); assay: as above; conditions: 72 h
# [18] = tested on: normal primary NK cells, pool 2 (3 donors) (IL-2 2.5 ng/mL); assay: as above; conditions: 72 h
# [19] = tested on: normal primary NK cells, pool 3 (3 donors) (IL-2 2.5 ng/mL); assay: as above; conditions: 72 h
# [20] = tested on: normal NK cells expanded with K562-aAPC; assay: drug sensitivity score (DSS) (DSS units); higher = more sensitive; extreme values may be limits of the assay; conditions: 72 h; IL-2 2.5 ng/mL
# Procedure: as §2
# DERL-7 (IL-2 2.5 ng/mL) [21] = assay: as above; conditions: 72 h
# IMC-1 (IL-2 20 ng/mL) [22] = assay: as above; conditions: 72 h
# KAI3 (IL-2 2.5 ng/mL) [23] = assay: as above; conditions: 72 h
# KHYG-1 (IL-2 2.5 ng/mL) [24] = assay: as above; conditions: 72 h
# NK-92 (IL-2 2.5 ng/mL) [25] = assay: as above; conditions: 72 h
# NK-YS (IL-2 2.5 ng/mL) [26] = assay: as above; conditions: 72 h
# NKL (IL-2 2.5 ng/mL) [27] = assay: as above; conditions: 72 h
# SNK-6 (IL-2 2.5 ng/mL) [28] = assay: as above; conditions: 72 h
# YT (IL-2 2.5 ng/mL) [29] = assay: as above; conditions: 72 h
# [30] = tested on: normal primary NK cells, pool 1 (3 donors) (IL-2 2.5 ng/mL); assay: as above; conditions: 72 h
# [31] = tested on: normal primary NK cells, pool 1 (3 donors), resting (IL-2 0 ng/mL); assay: as above; conditions: 72 h
# [32] = tested on: normal primary NK cells, pool 2 (3 donors) (IL-2 2.5 ng/mL); assay: as above; conditions: 72 h
# [33] = tested on: normal primary NK cells, pool 3 (3 donors) (IL-2 2.5 ng/mL); assay: as above; conditions: 72 h
smiles,measurement,setting,value
CS(=O)(=O)CCNCc1ccc(-c2ccc3ncnc(Nc4ccc(OCc5cccc(F)c5)c(Cl)c4)c3c2)o1 [Lapatinib],relative IC50,SNK-6 (IL-2 2.5 ng/mL) [1],> 1000 nM
CCN1CCN(c2ccc(Nc3cc(N(C)C(=O)Nc4c(Cl)c(OC)cc(OC)c4Cl)ncn3)cc2)CC1 [NVP-BGJ398],relative IC50,SNK-6 (IL-2 2.5 ng/mL) [1],> 1000 nM
O=C(c1ccc(F)c(F)c1Nc1ccc(I)cc1F)N1CC(O)([C@@H]2CCCCN2)C1 [Cobimetinib],relative IC50,KHYG-1 (IL-2 2.5 ng/mL) [2],123 nM
same,relative IC50,NKL (IL-2 2.5 ng/mL) [3],51.6 nM
same,relative IC50,SNK-6 (IL-2 2.5 ng/mL) [1],> 1000 nM
O=S(=O)(c1cccc2c(O)nccc12)N1CCCNCC1 [Hydroxyfasudil],relative IC50,SNK-6 (IL-2 2.5 ng/mL) [1],9460 nM
CCN1CCN(Cc2ccc(-c3cc4c(N[C@H](C)c5ccccc5)ncnc4[nH]3)cc2)CC1 [NVP-AEE788],relative IC50,NK-92 (IL-2 2.5 ng/mL) [4],374 nM
COc1cc(F)c(F)c(Nc2ccc(I)cc2F)c1NS(=O)(=O)C1(C[C@H](O)CO)CC1 [Refametinib],relative IC50,DERL-7 (IL-2 2.5 ng/mL) [5],194 nM
same,relative IC50,KHYG-1 (IL-2 2.5 ng/mL) [2],147 nM
same,relative IC50,NKL (IL-2 2.5 ng/mL) [3],91.9 nM
Oc1ncc(N(CCCl)CCCl)c(O)n1 [Uracil mustard],relative IC50,SNK-6 (IL-2 2.5 ng/mL) [1],> 10000 nM
Cn1cnc2c(F)c(Nc3ccc(Br)cc3Cl)c(C(=O)NOCCO)cc21 [Selumetinib],relative IC50,DERL-7 (IL-2 2.5 ng/mL) [5],136 nM
same,relative IC50,KHYG-1 (IL-2 2.5 ng/mL) [2],606 nM
same,relative IC50,NKL (IL-2 2.5 ng/mL) [3],436 nM
same,relative IC50,SNK-6 (IL-2 2.5 ng/mL) [1],> 10000 nM
Cn1c(=O)c(F)c(Nc2ccc(I)cc2F)c2c(=O)n(C[C@@H](O)CO)cnc21 [TAK-733],relative IC50,KHYG-1 (IL-2 2.5 ng/mL) [2],22.5 nM
same,relative IC50,NKL (IL-2 2.5 ng/mL) [3],12.6 nM
Cc1c2oc3c(C)ccc(C(=O)N[C@@H]4C(=O)N[C@H](C(C)C)C(=O)N5CCC[C@H]5C(=O)N(C)CC(=O)N(C)[C@@H](C(C)C)C(=O)O[C@@H]4C)c3nc-2c(C(=O)N[C@@H]2C(=O)N[C@H](C(C)C)C(=O)N3CCC[C@H]3C(=O)N(C)CC(=O)N(C)[C@@H](C(C)C)C(=O)O[C@@H]2C)c(N)c1=O [Dactinomycin] (max concentration tested 1000 nM),percent inhibition of viability,[6]; 0.1 nM,1.4%
same,percent inhibition of viability,[6]; 1 nM,5.24%
same,percent inhibition of viability,[6]; 10 nM,28.6%
same,percent inhibition of viability,[6]; 100 nM,101%
same,percent inhibition of viability,[6]; 1000 nM,101%
same,percent inhibition of viability,DERL-7 (IL-2 2.5 ng/mL) [7]; 0.1 nM,-0.87%
same,percent inhibition of viability,DERL-7 (IL-2 2.5 ng/mL) [7]; 1 nM,44.9%
same,percent inhibition of viability,DERL-7 (IL-2 2.5 ng/mL) [7]; 10 nM,83%
same,percent inhibition of viability,DERL-7 (IL-2 2.5 ng/mL) [7]; 100 nM,101%
same,percent inhibition of viability,DERL-7 (IL-2 2.5 ng/mL) [7]; 1000 nM,101%
same,percent inhibition of viability,IMC-1 (IL-2 20 ng/mL) [8]; 0.1 nM,-6.77%
same,percent inhibition of viability,IMC-1 (IL-2 20 ng/mL) [8]; 1 nM,-14.7%
same,percent inhibition of viability,IMC-1 (IL-2 20 ng/mL) [8]; 10 nM,38.1%
same,percent inhibition of viability,IMC-1 (IL-2 20 ng/mL) [8]; 100 nM,100%
same,percent inhibition of viability,IMC-1 (IL-2 20 ng/mL) [8]; 1000 nM,101%
same,percent inhibition of viability,KAI3 (IL-2 2.5 ng/mL) [9]; 0.1 nM,-6.19%
same,percent inhibition of viability,KAI3 (IL-2 2.5 ng/mL) [9]; 1 nM,34.4%
same,percent inhibition of viability,KAI3 (IL-2 2.5 ng/mL) [9]; 10 nM,52.9%
same,percent inhibition of viability,KAI3 (IL-2 2.5 ng/mL) [9]; 100 nM,103%
same,percent inhibition of viability,KAI3 (IL-2 2.5 ng/mL) [9]; 1000 nM,107%
same,percent inhibition of viability,KHYG-1 (IL-2 2.5 ng/mL) [10]; 0.1 nM,-3.25%
same,percent inhibition of viability,KHYG-1 (IL-2 2.5 ng/mL) [10]; 1 nM,36.4%
same,percent inhibition of viability,KHYG-1 (IL-2 2.5 ng/mL) [10]; 10 nM,71%
same,percent inhibition of viability,KHYG-1 (IL-2 2.5 ng/mL) [10]; 100 nM,106%
same,percent inhibition of viability,KHYG-1 (IL-2 2.5 ng/mL) [10]; 1000 nM,108%
same,percent inhibition of viability,NK-92 (IL-2 2.5 ng/mL) [11]; 0.1 nM,-12.8%
same,percent inhibition of viability,NK-92 (IL-2 2.5 ng/mL) [11]; 1 nM,-6.87%
same,percent inhibition of viability,NK-92 (IL-2 2.5 ng/mL) [11]; 10 nM,22%
same,percent inhibition of viability,NK-92 (IL-2 2.5 ng/mL) [11]; 100 nM,87.4%
same,percent inhibition of viability,NK-92 (IL-2 2.5 ng/mL) [11]; 1000 nM,105%
same,percent inhibition of viability,NK-YS (IL-2 2.5 ng/mL) [12]; 0.1 nM,5.62%
same,percent inhibition of viability,NK-YS (IL-2 2.5 ng/mL) [12]; 1 nM,72.3%
same,percent inhibition of viability,NK-YS (IL-2 2.5 ng/mL) [12]; 10 nM,94.4%
same,percent inhibition of viability,NK-YS (IL-2 2.5 ng/mL) [12]; 100 nM,106%
same,percent inhibition of viability,NK-YS (IL-2 2.5 ng/mL) [12]; 1000 nM,107%
same,percent inhibition of viability,NKL (IL-2 2.5 ng/mL) [13]; 0.1 nM,-4.78%
same,percent inhibition of viability,NKL (IL-2 2.5 ng/mL) [13]; 1 nM,72.4%
same,percent inhibition of viability,NKL (IL-2 2.5 ng/mL) [13]; 10 nM,84.8%
same,percent inhibition of viability,NKL (IL-2 2.5 ng/mL) [13]; 100 nM,108%
same,percent inhibition of viability,NKL (IL-2 2.5 ng/mL) [13]; 1000 nM,110%
same,percent inhibition of viability,SNK-6 (IL-2 2.5 ng/mL) [14]; 0.1 nM,33.9%
same,percent inhibition of viability,SNK-6 (IL-2 2.5 ng/mL) [14]; 1 nM,71.2%
same,percent inhibition of viability,SNK-6 (IL-2 2.5 ng/mL) [14]; 10 nM,81.7%
same,percent inhibition of viability,SNK-6 (IL-2 2.5 ng/mL) [14]; 100 nM,99.6%
same,percent inhibition of viability,SNK-6 (IL-2 2.5 ng/mL) [14]; 1000 nM,78.6%
same,percent inhibition of viability,YT (IL-2 2.5 ng/mL) [15]; 0.1 nM,0.56%
same,percent inhibition of viability,YT (IL-2 2.5 ng/mL) [15]; 1 nM,51%
same,percent inhibition of viability,YT (IL-2 2.5 ng/mL) [15]; 10 nM,97.4%
same,percent inhibition of viability,YT (IL-2 2.5 ng/mL) [15]; 100 nM,107%
same,percent inhibition of viability,YT (IL-2 2.5 ng/mL) [15]; 1000 nM,108%
same,percent inhibition of viability,[16]; 0.1 nM,5.89%
same,percent inhibition of viability,[16]; 1 nM,7.37%
same,percent inhibition of viability,[16]; 10 nM,35.9%
same,percent inhibition of viability,[16]; 100 nM,98.4%
same,percent inhibition of viability,[16]; 1000 nM,98.6%
same,percent inhibition of viability,[17]; 0.1 nM,-15.9%
same,percent inhibition of viability,[17]; 1 nM,13.6%
same,percent inhibition of viability,[17]; 10 nM,67.8%
same,percent inhibition of viability,[17]; 100 nM,91.7%
same,percent inhibition of viability,[17]; 1000 nM,90.8%
same,percent inhibition of viability,[18]; 0.1 nM,-13.2%
same,percent inhibition of viability,[18]; 1 nM,8.51%
same,percent inhibition of viability,[18]; 10 nM,64.2%
same,percent inhibition of viability,[18]; 100 nM,94.5%
same,percent inhibition of viability,[18]; 1000 nM,95.7%
same,percent inhibition of viability,[19]; 0.1 nM,-10.8%
same,percent inhibition of viability,[19]; 1 nM,5.15%
same,percent inhibition of viability,[19]; 10 nM,39.6%
same,percent inhibition of viability,[19]; 100 nM,98.5%
same,percent inhibition of viability,[19]; 1000 nM,99.8%
same,drug sensitivity score,[20],22.2
same,drug sensitivity score,DERL-7 (IL-2 2.5 ng/mL) [21],33.6
same,drug sensitivity score,IMC-1 (IL-2 20 ng/mL) [22],23.2
same,drug sensitivity score,KAI3 (IL-2 2.5 ng/mL) [23],26.6
same,drug sensitivity score,KHYG-1 (IL-2 2.5 ng/mL) [24],30.4
same,drug sensitivity score,NK-92 (IL-2 2.5 ng/mL) [25],18.8
same,drug sensitivity score,NK-YS (IL-2 2.5 ng/mL) [26],39.5
same,drug sensitivity score,NKL (IL-2 2.5 ng/mL) [27],38.8
same,drug sensitivity score,SNK-6 (IL-2 2.5 ng/mL) [28],38.1
same,drug sensitivity score,YT (IL-2 2.5 ng/mL) [29],36.5
same,drug sensitivity score,[30],22
same,drug sensitivity score,[31],25.8
same,drug sensitivity score,[32],25.3
same,drug sensitivity score,[33],22.5
